These results are taken from article PMC11726359, “Discovery of Rezatapopt (PC14586), a First-in-Class, Small-Molecule Reactivator of p53 Y220C Mutant in Development” (ACS Medicinal Chemistry Letters, 2024).

As a reminder, the IC50 is the midpoint of a concentration-inhibition curve.

Molecules are shown by their SMILES.

Series [1] concerns the target T1, recombinant His-tag Y220C p53 DNA binding domain (Homo sapiens, UniProt P04637, Y220C).
T1 construct: Y220C p53 DBD protein (amino acids #94-312); made in house
Put plainly: TR-FRET DNA binding assay (SC150). It counts as biochemical. The note with it: Table 3; concentration required to increase DNA binding by 1.5-fold. From the text: At the outset of our hit generation campaign, several small molecules targeting the p53 Y220C mutant protein were identified. Two notable examples, supported by crystallographic data, were the compounds from the carbazole series[6] (PhiKan83) and the iodophenol series[7] (PK1596) (Figure 1). To assess the in vitro potency of the p53 Y220C reactivators, a time-resolved fluorescence resonance energy transfer (FRET) assay was developed. In this assay, recombinant His-tag Y220C p53 DNA binding domain binds to biotin-labeled consensus DNA, and the FRET signal is measured between the allophycocyanin-conjugated anti-His-tag antibody and europium-conjugated streptavidin. The […] concentration required to increase DNA binding by 1.5-fold (SC150) could then be determined. The carbazole compound (PhiKan83) enhanced DNA binding with an SC150 of 37.2 μM. […]
Time-Resolved Fluorescence Resonance Energy Transfer (TR-FRET) Assay
DNA binding activity was measured by the TR-FRET assay. In this assay, the recombinant His6-tag Y220C p53 DNA binding domain (DBD) protein binds to biotin labeled consensus DNA. The binding of recombinant His6-tag Y220C p53 DBD protein and biotin-labeled consensus DNA is detected by the fluorescence resonance energy transfer (FRET) between allophycocyanin (APC) conjugated anti-His6 tag antibody and Europium-(Eu) conjugated Streptavidin. Test compounds, at 2 mM stock in DMSO, were diluted t hr e e-f ol d in serial dilutions in DMSO and 1.2 µL per well were added into 384-well polypropylene black plates (NUNC). Subsequently, 30 µL per well of 181 nM recombinant His6-tag Y220C p53 DBD protein (amino acids #94-312) and 9.1 nM of APC conjugated anti-His6 tag antibody (Columbia Biosciences) in ice-cold Assay Buffer 1 (50 mM Tris-HCl, pH 7.4, 75 mM KCl, 0.75 mM DTT and 0.2 mg/mL bovine serum albumin [BSA]) was added. As a background control, 30 µL of Assay Buffer 1 containing 9.1 nM of APC anti-His6 antibody (no Y220C protein) was also added into a second set of serial diluted compound plates. The samples were centrifuged at 1,200 rpm (Eppendorf 5810R plate centrifuge) for 1 minute and incubated at room temperature (20 °C) for 15 min. The samples were then incubated at 27 °C in a water bath for 48 min. Afterwards, 5 µL per well of 145 nM biotin labeled oligonucleotide from a consensus DNA p53 response element (a DNA duplex with 5’ to 3’sequence of […]
and biotin attached to the 3’ end of the complementary DNA) and 8.8 nM Eu-conjugated streptavidin (Columbia Biosciences) in Assay Buffer 2 (50 mM Tris-HCl, pH 7.4, 75 mM KCl and 0.2 mg/mL BSA) were added. The samples were centrifuged at 1,200 rpm for 1 min and incubated at room temperature (20 °C) for 20 min. Assay signals were monitored by reading excitation at 340 nm, and emission fluorescence at 615 and 665 nm, on an Envision reader (Perkin El mer). Normalized TR -FRET assay signal (Rn) was calculated by the formula:
Rn = [(A − B a − C × (D − Bd))/(D − Bd)] × (Dc − B d),
C = (Ac − B a)/(Dc − B d), […]
Background: In TR-FRET formats the signal depends on donor and acceptor labels being close together.

The test system of series [2] is NUGC-3, gastric cancer cell line with a TP53 Y220C mutation. Description: MTT cell proliferation assay. It counts as cell-based, human. As to conditions: Homo sapiens, NUGC-3, 120 h, Table 3; NUGC-3 cells, five days incubation. The method, then:
We also evaluated the effects of these compounds on the growth and viability of four cancer cell lines in vitro. Two of the cell lines (NUGC-3, gastric cancer cell line with a TP53 Y220C mutation and T3M-4, pancreatic carcinoma cell line) have the TP53 Y220C mutation leading to the p53 Y220C mutant protein; SJSA-1 is a p53 WT cell line, and NUGC-3-KO is an isogenic p53 knockout cell line.[11] After incubating the cells with the compounds for five days, cell viability was measured using the 3-(4,5-dimethylthiazol-2-yl)-2,5-diphenyltetrazolium bromide (MTT) assay.
C = (Ac − B a)/(Dc − B d),
Prism (GraphPad) or XLfit software (IDBS).
Cells were seeded at an appropriate
Compounds were tested at eight concentrations with 2-fold serial dilutions. […]
with a reference wavelength of 650 nm. […]
untreated cells (control). […]
On the technique in general: Tetrazolium assays rely on reduction of a dye to a coloured formazan, in cell work by metabolically active cells.

Series [3] relates to NUGC-3 tumor xenografts. Put plainly: NUGC-3 tumor xenograft efficacy in nude mice. As to conditions: for inhibition of tumor growth: oral, daily. The class given is in vivo, mouse. The method, then: Compound 26 (rezatapopt; PC14586), which had the most favorable plasma exposure, was evaluated for its ability to inhibit the growth of NUGC-3 tumor xenografts in nude mice.
Study of C ompound 26 in NUGC-3 Xenograft
Female Balb/c nude mice, aged 4 to 6 weeks, were obtained from Envigo (Madison, WI). All mice were housed at the PMV Pharmaceuticals Vivarium. Mouse care and experimental procedures adhered to institutional guidelines for ethical use, with all research protocols approved by the Institutional Animal Care and Use Committees of PMV Pharmaceuticals. The mice were maintained at ambient temperatures of 68–72 °F, with 30–70% humidity, and a 12 -hour dark/light cycle.
NUGC-3 cells were resuspended at a concentration of 1×10^7 viable cells/mL in a 50:50 mixture of phosphate-buffered saline and Matrigel Matrix (Corning). Subsequently, 100 µL of the suspension was injected subcutaneously into the dorsal flankof the mice . Mice were selected and randomized into treatment groups based on tumor size.

The nature of series [4]: Toxicological studies. As to conditions: result in words.
Series [5] has as its system TP53 Y220C mutant solid tumors. Further details: method as in doi:10.1158/1535-7163.TARG-23-LB_A25. The note with it: cited from earlier work.
Series [6] is described as follows: Pharmacokinetic study in mice. The note with it: Table 3, PO, 50 mg/kg.
Method: Pharmacokinetic parameters were evaluated in female CD-1 mice. Animals received an oral gavage dose of 50 mg/kg of the test article. The test article was formulated in a solution containing 2% hydroxypropyl
cellulose and 0.5% Tween 80 in water. Blood samples were collected at 0.5, 1, 2, 4, 7, and 24 h post dose.
Blood samples were processed into plasma, and the concentrations of the test article were determined by
LC-MS/MS. P harmacokinetic parameters were calculated using the Phoenix WinNonlin 6.3 program,
employing a non- compartmental model 200.

As for `CNC(=O)c1ccc(NCC#Cc2cc3c(N[C@@H]4CCN(C)C[C@@H]4F)cccc3n2CC(F)(F)F)c(OC)c1` [Compound 26], in series [1], the SC150 is on record as 9 nM. The same molecule gave an IC50 in series [2] of 0.504 µM. The molecule further had a tumor regression in series [3] (100 mg/kg, nude mice) of 80%. Further, the “effect on established human tumor xenografts harboring TP53 Y220C” value in series [3] (mouse models, well-tolerated doses, result in words) was “tumor inhibition and regression”. For the same molecule, the “inhibition of tumor growth” value in series [3] (25 mg/kg, nude mice) stood at 33%. For the same molecule, in series [3] (50 mg/kg, nude mice), the “inhibition of tumor growth” value amounted to 71%. For the same molecule, in series [4], the “safety profile in toxicological studies” value is “favorable safety profile”. In addition, the “clinical efficacy in Phase 1 clinical trials” value in series [5] (heavily pretreated patients, solid tumors harboring TP53 Y220C, listed as rezatapopt) was “single-agent clinical efficacy was achieved”. Further, in series [5] (within the efficacious dose range), the “safety profile in Phase 1 clinical trials” value was “favorable safety profile”. Further, in series [6], the “Mouse PK Exposure AUC0-last” value was found to be 163.342 µg·h/mL and the “Mouse PK Exposure Cmax” value is listed as 16600 ng/mL.
